Results reported in paper PMC9083324, “Identifying Acute Cardiac Hazard in Early Drug Discovery Using a Calcium Transient High-Throughput Assay in Human-Induced Pluripotent Stem Cell-Derived Cardiomyocytes” (Frontiers in Physiology, 2022).

Legend:
[1] = test system: hiPSC-CMs (iCell Cardiomyocytes^2); assay: Ca2+ transient assay (CTCM) with acute cardiac hazard scoring in hiPSC-CMs; details: for incidence of EADs / prolongation of CTD90: 3 nM
Procedure: Cells were pre-plated and seeded in fibronectin-coated 96-well plates at a density suited to form a monolayer and maintained in culture in a stage incubator (37°C, 5% CO2) according to the instructions of the cell provider. […] The beating monolayer was taken from frozen vials iCell Cardiomyocytes^2 (≈5 million cells/vial), which were plated onto three 96-well plates (≈50K/well).
Cells from these lot numbers were from the same donor (Apparently healthy normal, age <18) (according to FUJIFILM Cellular Dynamics).
On the day of the experiment, the culture medium in the 96-well plates containing the monolayers of hiPSC-CMs was replaced with Tyrode’s solution (Sigma, No. T2397) supplemented with 10 mM HEPES together with KCl to yield isokalemic (4.2 mM K^+) conditions.
The Ca^2+-sensitive fluorescence dye Cal-520™ AM (Cat. no.21131; AAT Bioquest) was used to capture the intracellular Ca^2+ transients in hiPSC-CMs. […] Briefly, Cal-520 was incubated for 70 min followed by a wash-out with supplemented Tyrode’s solution and a 30-min recovery before starting the experiments at 37°C. […] Compounds were added automatically using the Functional Drug Screen System (FDSS/µCell; Hamamatsu, Japan) head stage by adding 100 µl of the 2-fold concentrated compound solution to wells with hiPSC-CMs already containing a volume of 100 µl of the experimental solution, reaching the final intended test concentration in 0.1% DMSO.
The spontaneous beating activity of hiPSC-CMs was assessed through measurement of the Ca^2+ fluorescence signal integrated over the whole well. Ten minutes before starting the recordings, the experimental plates were put into the FDSS system for stabilization and a baseline recording was captured for 4 min followed by compound addition. The effect of the compounds was recorded around 30 min after compound addition. The Ca^2+ transient signals were sampled every 16 ms (frame rate of 62.5 Hz) in hiPSC-CMs maintained at 37°C during the acquisition time. […] In addition, beat rate (BR = peak count/min) and amplitude (amp = difference between max. and min of every beat) were measured, and incidence of cellular arrhythmias, e.g., EAD-like activity (considered a surrogate of TdP), cessation of beating (∼ stop beating), and below beating below quantification level (caused by low amplitude of the Ca^2+ transient or by ectopic beat: BBQL) were also recorded (Figures 1B,C).
For all individual experiments, delta percent (Δ%) at 30 min with respect to the baseline value was calculated [e.g., ∆% for CTD90 = (CTD90 30 min-CTD90 0 min)/CTD90 0 min) × 100].
TIs indicate an interval where, with a certain confidence level (1- α = 0.95), a specified proportion (p = 0.90) of a sampled population falls. […] These ΔΔ% net effects were the values obtained after normalization for baseline (Δ% vs. baseline) per well and the aggregated compound-treated wells are vehicle corrected by subtraction with the aggregated Δ% of the corresponding DMSO wells from the same plate [e.g., ΔΔ% = median Δ% drug - median Δ% DMSO]. The categorization was made first for each concentration and then aggregated per compound and test site. […] Similarly, a compound was categorized as decreased if it was in a category “decreased” in at least one of the four concentrations.
The cut-off values are net changes (ΔΔ% changes vs. baseline and vehicle), which are based on the statistical tolerance intervals (TIs) (Δ% changes vs. baseline). TIs indicate an interval where, with a certain confidence level, a specified proportion of a sampled population falls.

[2] = test system: IKr; parameters: method as in Liu et al., 2010; details: ref Liu et al., 2010; cited from earlier work
[3] = test system: IKs; parameters: method as in Liu et al., 2010; details: ref Liu et al., 2010; cited from earlier work
[4] = test system: hiPSC-CMs (iCell Cardiomyocytes); assay: Ca2+ transient assay (CTCM), lot-to-lot comparison in iCell Cardiomyocytes (non-square cells, Lot 103674); assay type: cell-based, human
Procedure: To investigate lot-to-lot variability in hiPSC-CMs, we tested 19 drugs with known clinical cardiac risk in other lots of iCell Cardiomyocytes^2. Fifty-five reference drugs were tested in iCell Cardiomyocytes^2 -Lot12012, 18 reference drugs were tested in iCell Cardiomyocytes^2 (Lot105091), and 18 reference drugs were tested in iCell Cardiomyocytes (Lot103674) (nonsquare cells).

[5] = over the tested concentrations (Figure 3)
[6] = similar among the iCell Cardiomyocytes^2 and iCell Cardiomyocytes lots
[7] = 3 nM (2-fold fCmax), n = 131 studies
[8] = updated scoring: 10 points for decrease in beat rate by ≥ −30%

For `[Ba+2].[Cl-].[Cl-]` [BaCl2], the “effect on hiPSC-CMs (detection in the assay)” value ([1]; concentration not given) was “no effect”.
In the case of `O=C(c1ccc(OCCN2CCCCC2)cc1)c1c(-c2ccc(O)cc2)sc2cc(O)ccc12` [Raloxifene], the IC50 [2] is listed as 1100 nM, the IC50 [3] is listed as 4800 nM and the hazard score ([1]; at >2000 folds of fCmax) is listed as “red”. The hazard score ([1]; at ∼700–800 folds fCmax) was “green”.
With `COCCOC(=O)C1=C(C)NC(C)=C(C(=O)OC(C)C)C1c1cccc([N+](=O)[O-])c1` (stereo not drawn) [Nimodipine] the “share of studies identified within the low and high hazard zones” value ([1]; 300 nM (15-fold fCmax), n = 124 studies) was 95%.
With `Cc1cc2c(s1)Nc1ccccc1N=C2N1CCN(C)CC1` [Olanzapine] the hazard score ([1]; highest tested concentration 100 nM (around fCmax)) was “not found to be with any hazard level”.
With `O=C1NC(=O)C(c2ccccc2)(c2ccccc2)N1` [Phenytoin] the hazard score [1, 5] was “Green”.
With `CC(C)(C)c1ccc(C(=O)CCCN2CCC(OC(c3ccccc3)c3ccccc3)CC2)cc1` [Ebastine] the hazard score [1, 6] was “no hazard”.
With `CN(CCOc1ccc(NS(C)(=O)=O)cc1)CCc1ccc(NS(C)(=O)=O)cc1` [Dofetilide] the “incidence of EADs” value ([4]; 3 nM, iCell Cardiomyocytes) was 65%, the “prolongation of CTD90” value ([4]; 3 nM, lot105091 as printed (n = 20)) was 234% and the “share of studies identified as high (red color) hazard score” value [1, 7] was 21%. The “share of studies identified as very high (black color) hazard score” value [1, 7] was 71%, the “share of studies identified as yellow hazard score” value [1, 7] was 8% and the “incidence of EADs” value ([1]; first iCell Cardiomyocytes^2 lot (12,012)) was 63%. The “prolongation of CTD90” value ([1]; lot 10,591 (n = 28)) was 330%, the “prolongation of CTD90” value ([1]; lot 12,012 (n = 144)) was 305% and the “incidence of EADs” value ([1]; second iCell Cardiomyocytes^2 lot) was 71%.
With `C[C@H](CS)C(=O)N1CCC[C@H]1C(=O)O` [Captopril] the hazard score [1, 6] was “no hazard”.
In the case of `C[N+](C)(C)CCOC(N)=O` [carbachol], the hazard score [1, 8] is reported as “low”.
In the case of `COc1cc2c(cc1OC)CC(=O)N(CCCN(C)C[C@H]1Cc3cc(OC)c(OC)cc31)CC2` [Ivabradine], the hazard score [1, 8] is reported as “low”.
In the case of `CC(C)NCC(O)c1ccc(O)c(O)c1` (stereo not drawn) [Isoproterenol], the “share of studies identified within the low and high hazard zones” value ([1]; 100 nM (63-fold fCmax), n = 143 studies) is reported as 92%.
For `Nc1ncnc2c1ncn2[C@@H]1O[C@H](CO)[C@@H](O)[C@H]1O` [adenosine], the hazard score [1, 8] was “low”.
For `CC(C)(C)c1ccc(C(O)CCCN2CCC(C(O)(c3ccccc3)c3ccccc3)CC2)cc1` (stereo not drawn) [terfenadine], the cessation of beating ([1]; concentration not given) was “caused cessation of beating” and the “effect on CTD90” value ([1]; concentration not given) was “slightly shortened”.
With `O=C(Nc1ccc(Oc2ccccc2)cc1)c1cccc([N+](=O)[O-])c1` [ICA-105574] the “effect on CTD90” value ([1]; concentration not given) was “shortened”.
In the case of `CC(C)NCC(O)c1ccc(NS(C)(=O)=O)cc1` (stereo not drawn) [Sotalol], the “EAD incidence compared to the two lots of iCell-Cardiomyocytes^2 (3 and 10 µM)” value ([4]; iCell Cardiomyocytes, 10 µM) is reported as “much higher”.
In the case of `CC(C)NCC(O)COc1ccc(CC(N)=O)cc1` (stereo not drawn) [Atenolol], the hazard score [1, 6] is reported as “no hazard”.
In the case of `Cc1cccc(C)c1OCC(C)N` (stereo not drawn) [Mexiletine], the cessation of beating ([1]; 100 µM = 67x fCmax) is reported as “some cessation of beating” and the hazard score ([1]; 100 µM = 67x fCmax) is reported as “Red”.
In the case of `CC(C)(Oc1ccc(Cl)cc1)C(=O)NC1C2CC3CC1CC(NS(C)(=O)=O)(C3)C2` (stereo not drawn) [JNJ-303], the “effect on hiPSC-CMs (detection in the assay)” value ([1]; concentration not given) is reported as “not detected”.
In the case of `O=C(O)COCCN1CCN(C(c2ccccc2)c2ccc(Cl)cc2)CC1` (stereo not drawn) [Cetirizine], the hazard score ([1]; 1 µM (16-fold the fCmax), numerous studies) is reported as “no hazard”.
For `CCC1(c2ccccc2)C(=O)NCNC1=O` [Primidone], the hazard score [1, 5] was “Green”.
